# Results: PubChem BioAssay (NCI)
# Values joined by “and” are separate entries in the source; they are usually repeats but may differ in a detail not shown here. Identical values can stand only once.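 Interpolation was linear, between the two tested concentrations surrounding the appropriate level; five concentrations were tested over 48 hours in 96-well plates. Here, GI50 denotes the concentration required for 50% inhibition of growth. At the TGI there is no net growth.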
# Assays:
# Assay in all cases: NCI anticancer screen, dose series, 48 h
# MOLT-4 leukemia = tested on: MOLT-4 leukemia
# KM12 colon = tested on: KM12 colon
# MALME-3M melanoma = tested on: MALME-3M melanoma
# SK-OV-3 ovarian = tested on: SK-OV-3 ovarian
# TK-10 renal = tested on: TK-10 renal
# RPMI-8226 leukemia = tested on: RPMI-8226 leukemia
# SK-MEL-5 melanoma = tested on: SK-MEL-5 melanoma
# SK-MEL-28 melanoma = tested on: SK-MEL-28 melanoma
# MDA-MB-435 = tested on: MDA-MB-435
# SNB-19 CNS = tested on: SNB-19 CNS
Structure (SMILES),GI50 (MOLT-4 leukemia) [µM],TGI (MOLT-4 leukemia),GI50 (KM12 colon) [µM],TGI (KM12 colon),GI50 (MALME-3M melanoma) [µM],TGI (MALME-3M melanoma),GI50 (SK-OV-3 ovarian) [µM],TGI (SK-OV-3 ovarian),GI50 (TK-10 renal) [µM],TGI (TK-10 renal),GI50 (RPMI-8226 leukemia) [µM],TGI (RPMI-8226 leukemia),GI50 (SK-MEL-5 melanoma) [µM],TGI (SK-MEL-5 melanoma),GI50 (SK-MEL-28 melanoma) [µM],TGI (SK-MEL-28 melanoma) [µM],GI50 (MDA-MB-435) [µM],TGI (MDA-MB-435),GI50 (SNB-19 CNS) [µM],TGI (SNB-19 CNS)
COC(=O)[C@]12CC[C@@H](C)[C@H](C)[C@@H]1C1=CC[C@@H]3[C@@]4(C)C(C=O)=C[C@@](C)(COS(C)(=O)=O)C4[C@H](O)C[C@@]3(C)[C@]1(C)CC2 (some centres not stated),0.313,1.05 µM,1.83,3.96 µM,1.65,3.39 µM,4.08,16.2 µM,2,4.91 µM,0.342,1.99 µM,1.7,3.26 µM,2.15,5.05,1.67,3.57 µM,2.47,8.44 µM
Nc1c(C(=O)N/N=C/c2ccc(-c3cc(Cl)c(Cl)cc3Cl)o2)cnn1-c1ccnc2c(C(F)(F)F)cccc12,2.91,> 100 µM,3.83,> 100 µM,2.66,10.6 µM,4.81,73 µM,3.48,> 100 µM,3.25,> 100 µM,3.74,14.6 µM,4.03,> 100,3.85,> 100 µM,4.17,> 100 µM
CCNNC(=O)[C@@H]1[C@H](c2cc(OC)c(OC)c(OC)c2)c2cc3c(cc2[C@H](O)[C@H]1CO)OCO3,0.4,> 100 µM,0.387,> 100 µM,> 20.5,> 100 µM,0.29,1.08 µM,30.8,> 100 µM,0.407,> 100 µM,0.236,0.635 µM,0.599,> 100,0.24,0.697 µM,0.452,> 100 µM
CN(CC(=O)O)Cc1oc(CO)cc(=O)c1O,–,> 100 µM,–,> 100 µM,–,> 100 µM,–,> 100 µM,–,> 100 µM,–,> 100 µM,–,> 100 µM,–,> 100,–,> 100 µM,–,> 100 µM
C=C1C(=O)OC2/C=C(\CO)CC/C=C(\CO)CC(OC(=O)C(C)C)C12 (configuration not stated),–,> 27.4 µM,–,33.5 µM,–,4.45 µM,–,> 55.9 µM,–,15.6 µM,–,25.5 µM,–,36 µM,–,42.4,–,29.5 µM,–,45.9 µM
O=C(CCSc1ccnc2c(C(F)(F)F)cccc12)N/N=C/c1cc(Cl)c(Cl)cc1Cl,32.2,98.8 µM,29.7,77.9 µM,50.1,> 100 µM,23.7,54.7 µM,33.6,72.4 µM,19,52.7 µM,19.3,34.9 µM,17,32.5,27.3,75.4 µM,21.9,48.5 µM
CCc1ccc2nccc(NCCCN(C)C)c2c1[N+](=O)[O-],–,> 100 µM,–,> 100 µM,–,> 100 µM,–,> 100 µM,–,> 100 µM,–,> 100 µM,–,> 100 µM,–,> 100,–,> 100 µM,–,> 100 µM
Cc1nc2c(N3CCCC3)nc(N3CCNCC3)nc2nc1NCc1ccccc1,3.34,15.1 µM and > 21.2 µM,6.53,26.6 µM and 13.3 µM,7.17,14.5 µM and 4.23 µM,6.15,11.7 µM and 20.5 µM,–,11.8 µM and 17.6 µM,4.08,10.2 µM and 4.84 µM,4.94,9.98 µM and 3.06 µM,–,3.75,4.36,10 µM and 6.41 µM,–,10.6 µM and 16.3 µM
O=C(COc1cccc(/C=C2\Oc3ccc4ccccc4c3C2=O)c1)c1ccc(Cl)cc1,3.13,11.1 µM,30.2,> 100 µM,22.4,> 100 µM,> 100,> 100 µM,> 100,> 100 µM,1.66,6.62 µM,79.2,> 100 µM,> 100,> 100,51,> 100 µM,> 100,> 100 µM
CC(C)C[C@H](NC(=O)CCn1ccc2ncccc2c1=O)B(O)O,2.9,> 28.7 µM,14.6,37.7 µM,5.2,48.9 µM,> 66,> 100 µM,6.44,61.8 µM,2.82,> 27 µM,3.97,19.2 µM,6.8,> 76.7,2.6,8.86 µM,32.6,> 100 µM
O=S(=O)(NC1=NCCN1C(=S)SN1CCn2c1nsc2=S)c1ccccc1Cl,2.02,14.1 µM,17,42.8 µM,12.5,67.5 µM,57,> 100 µM,16.3,64.2 µM,3.5,26.2 µM,15.8,31.1 µM,16.1,65.7,8.67,29.2 µM,41,> 100 µM
COc1c(Cl)ccc2c(-c3nc4cc(Cl)c(F)cc4s3)cc(=O)oc12,4.1,> 100 µM,4.06,22.1 µM,2.11,4.73 µM,7.03,19.9 µM,17.4,46.1 µM,3.58,> 38.2 µM,26.5,> 88.4 µM,26.5,> 78,25,> 66.1 µM,> 43.4,> 72.3 µM
Cc1ncc(C(=O)Nc2ccc(CN3CCN(C)CC3)c(C(F)(F)F)c2)cc1C#Cc1c(N)ncc2ccccc12,0.228,0.836 µM,0.00444,0.479 µM,0.102,0.475 µM,1.61,5.06 µM,0.623,1.12 µM,0.396,1.26 µM,0.446,0.878 µM,0.411,0.889,0.163,0.624 µM,0.591,1.06 µM
